The NIST ThermoML archive (doi:10.1016/j.jct.2012.02.006)
Numbers after ± are expanded uncertainties.

Test: molar heat capacity at constant pressure
Conditions: 298.15 K; 101.33 kPa; Liquid; Small sample (50 mg) DSC

molar heat capacity at constant pressure	SMILES
626.77 ± 63 J/K/mol	CCCCCC[C@@H](O)C/C=C\CCCCCCCC(=O)O [[R]-12-hydroxy-cis-9-octadecenoic acid]
696.53 ± 70 J/K/mol	CCCCCC[C@@H](O)CC=CCCCCCCCC(=O)OC [[R]-methyl 12-hydroxy-9-octadecenoate]
